Measurements published in PMC6768323, “Adverse Maternal, Fetal, and Postnatal Effects of Hexafluoropropylene Oxide Dimer Acid (GenX) from Oral Gestational Exposure in Sprague-Dawley Rats” (Environmental Health Perspectives, 2019).
Where “and” joins values, the source holds several entries; their conditions need not be identical. Equal entries are not always repeated.

What was measured:
[1] = test system: pregnant Sprague-Dawley rats; test: Maternal and fetal effects of GD14-18 oral dosing (weights, reproductive output); format: in vivo
Protocol: A total of three blocks of 15 dams per block were dosed once daily from GD14–18 with either water vehicle (control) or HFPO-DA to evaluate fetal and maternal effects (Figure 1A). The first block of dams was dosed with control, 62.5, 125, 250, or 500mg/kg HFPO-DA ( n=3 dams for each). The second and third blocks of dams were dosed with control, 1, 3, 10, or 30mg/kg HFPO-DA ( n=3 per dose per block). Total sample sizes were n=9 for control, n=6 for 1, 3, 10, 30mg/kg , and n=3 for 62.5, 125, 250, and 500mg/kg HFPO-DA. In the first two blocks, spanning the entire dose range, we evaluated fetal testis testosterone production, fetal testis gene expression, fetal and maternal liver gene expression, fetal body weight, and maternal serum thyroid hormone and lipid concentrations. In the third block, encompassing the lower dose range utilized here, we collected fetal plasma for measuring HFPO-DA concentrations. Across all three blocks we evaluated maternal weight gain during dosing, reproductive output (number of fetuses and resorptions), maternal serum HFPO-DA concentration, and maternal liver weight at necropsy.
For the first two blocks, spanning the full dose range, late gestation (GD18) dams were euthanized by decapitation at ∼2h after the final oral dose [ ∼0830–1000 hours Eastern Standard Time (EST)]. Trunk blood was collected and serum isolated via centrifugation ( 10,000×g for 15 min at 4°C) in vacutainer tubes, transferred to 1.5-mL microcentrifuge tubes and stored at −80°C . Dam liver weight was recorded and a sample of liver tissue was collected into a polypropylene microcentrifuge tube containing 500μL TRIzol Reagent (Invitrogen) on ice. Fetuses were removed and two randomly selected fetuses per litter were weighed. Fetal testes were collected from all male pups with a single testis from the first three males used for determination of ex vivo testosterone production and the remaining testes were homogenized and preserved in TRIzol Reagent for gene expression analysis. The liver was collected from a single, randomly selected fetus per dam/litter for gene expression analysis and transferred to a polypropylene microcentrifuge tube containing 500μL TRIzol Reagent (Invitrogen) on ice. Both dam and fetal liver samples were individually homogenized using a Bullet Blender (Next Advance) with 1-mm zirconium oxide beads, transferred to clean tubes, and stored at −80°C prior to RNA extraction (see below). Ex vivo fetal testis testosterone production was measured as previously reported ([Wilson et al. 2004b]) except the radioimmunoassay (RIA) utilized here was supplied by ALPCO (Catalog No. 72-TESTO-CT2, ALPCO). Briefly, one testis was isolated from each of three separate male fetuses in each litter and incubated in a humidified atmosphere at 37°C for 3 h in 500μL of M-199 media (phenol red–free; Hazelton Biologics, Inc.) supplemented with 10% dextran-coated charcoal-stripped fetal bovine serum (Hyclone Laboratories) in 24-well plates under gentle agitation. After incubation, media were removed and stored in siliconized microcentrifuge tubes at −80°C until RIA analyses, which were performed according to manufacturer specifications.
For the third block, dosed with the lower dose range ( 1–30mg/kg HFPO-DA), late gestation (GD18) dams were euthanized by decapitation ∼2h after the final dose, liver weight was recorded, and trunk blood was collected for serum isolation. Serum was isolated from trunk blood via centrifugation ( 10,000×g; 15 min; 4°C) using Becton Dickinson vacutainer tubes and stored in 1.5-mL siliconized microcentrifuge tubes at −80°C for future analyses. Fetuses were removed and fetal blood was collected from the jugular vein from all fetuses within a litter using heparinized glass capillary tubes. Blood was expelled from capillary tubes using fine-tip disposable transfer pipets into a microcentrifuge tube forming a single composite sample per litter. […]

Sprague-Dawley rats = conditions: cited from earlier work

O=C(O)C(F)(OC(F)(F)C(F)(F)C(F)(F)F)C(F)(F)F (stereo not drawn) [HFPO-DA, Hexafluoropropylene oxide dimer acid]
numbers of live pups, resorptions, fetal body weight compared with controls ([1]; 1-500 mg/kg): no significant differences
Dam BW GD18 ([1]; 1-500 mg/kg/d): 378.6 ± 19.1 g and 364.1 ± 15.6 g and 371.5 ± 11.4 g and 354.3 ± 12.4 g and 366.2 ± 9.9 g and 346.7 ± 5.5 g and 350.2 ± 6.0 g and 369.8 ± 15.1 g
No. fetuses ([1]; 1-500 mg/kg/d): 12.3 ± 1.0 and 13.3 ± 0.6 and 13.2 ± 0.5 and 13.5 ± 0.4 and 12.7 ± 0.9 and 14.3 ± 0.3 and 13.7 ± 1.3 and 14.7 ± 0.3
maternal body weight gain compared with controls ([1]; GD14-18 dosing window): significantly less body weight gain at the 250- and 500-mg/kg dose levels
Dam liver wt ([1]; GD18, 1-500 mg/kg/d): 15.8 ± 0.7 g and 16.7 ± 1.1 g and 16.5 ± 0.5 g and 17.2 ± 0.5 g and 17.8 ± 0.7 g and 19.1 ± 0.6 g and 19.6 ± 0.3 g and 19.2 ± 0.6 g
Fetal BW ([1]; GD18, 1-500 mg/kg/d): 908.7 ± 27.0 mg and 816.7 ± 24.2 mg and 841.0 ± 38.4 mg and 842.2 ± 50.5 mg and 863.7 ± 31.7 mg and 841.8 ± 46.7 mg and 889.1 ± 26.9 mg and 808.2 ± 88.9 mg
Dam BW GD14 ([1]; dose order 1, 3, 10, 30, 62.5, 125, 250, 500 mg/kg/d): 337.0 ± 12.9 g and 341.6 ± 14.1 g and 330.8 ± 13.4 g and 338.0 ± 11.5 g and 320.9 ± 8.7 g and 330.6 ± 8.8 g and 325.8 ± 3.7 g and 339.1 ± 10.5 g
dose with higher maternal liver weights ([1]; oral GD14-18): ≥ 62.5 mg/kg
NOAEL (Sprague-Dawley rats; ref Caverly Rae et al. 2015): 1 mg/kg per day
upper dose tolerated in the rat (Sprague-Dawley rats; ref Caverly Rae et al. 2015): 500 mg/kg per day
NOAEL, prenatal developmental toxicity study (Sprague-Dawley rats; ref DuPont 2010): 10 mg/kg per day
dose overtly toxic to the dam (Sprague-Dawley rats; ref DuPont 2010): 1,000 mg/kg per day
